According to article PMC7402526, “An in vitro quantitative systems pharmacology approach for deconvolving mechanisms of drug-induced, multilineage cytopenias” (PLoS Computational Biology, 2020):

How the values were obtained:
[1] = system: late erythroid cells (Eryth II); assay: MLTA, ErythII: concentration-response and QSP model fit; format: cell-based, human; conditions: Homo sapiens, 144 h
Outline: (§1)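 Freeze-thawed primary human bone marrow CD34+ cells were cultured 6 days in SFEM II with a cytokine cocktail, drug added on day 0. Subsets were counted by 17-parameter flow cytometry with TruCount beads and normalized to vehicle wells. An Emax QSP model (Emax 0–2, L1 regularization) was fitted to these counts.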

[2] = system: total viable cells (totalViableCells); assay: MLTA, total live cells concentration-response; format: cell-based; conditions: Homo sapiens, 144 h, 6 days, normalized to vehicle control, read-out: total_live normalized cell count
Protocol: A custom optimized cytokine cocktail was developed using commercially available cytokines (Peprotech, New Jersey) to facilitate simultaneous multi-lineage differentiation and self-renewal of freeze-thawed primary human bone marrow-derived CD34+ cells in SFEM II media (cells and media from StemCell Technologies, Vancouver). Cultures were carried out in ultra-low attachment 96-well plates (Corning, New York) with test article added on day 0 and cultured at 37°C, 85% relative humidity, and 5% CO2 for six days before interrogating drug impact via 17-parameter flow cytometry.
The flow cytometry panel used to define hematopoietic subsets was composed of CD34-PECy7, CD90-PECY5, CD38-AF488, CD371-PE, CD45Ra-BV421, CD14-BV605, CD42b-AF647, CD10-PEDazzle594, CD235a-PerCPCy5.5 (BioLegend, California), CD15-BUV395, CD41a-APCH7, CD71-BV786 (BD Biosciences, California), and DAPI for dead cell exclusion (ThermoFisher, California). In short, Day 6 cells were harvested, FcR-blocked (FcR binding inhibitor, ThermoFisher), surface-stained, then analyzed in a buffer containing TruCount Control Beads using a BD LSR Fortessa SORP fitted with a high-throughput sampler (BD Biosciences, California). Data was analyzed in Diva 6.0.2 and exported to CSV where after all cell data was transformed to cell per mL then normalized on a per-donor basis to untreated control wells to determine drug impact.
Donor material was collected and cultured as described above. The number of replicate donor samples per drug ranged from 2–7 and varied per drug (S1 Table). Drug treatment was added at time 0 and cells were maintained in culture for 6 days. Concentrations tested for each drug compound are contained in S1 Table. Concentrations were selected to span a range that is clinically useful. Following treatment, cell populations were measured using flow cytometry. We extracted cell counts from flow cytometry data, normalized to bead counts, and corrected for well volume.
Each well was normalized to the average of six vehicle control wells. For drugs that were tested across multiple runs of the assay, vehicle-normalized donor data were pooled, and we used the average of these pooled data for further modeling. Normalized data used as model inputs are included in S1 Table.

MK cells (MK-lin) = assay: MLTA, MK: concentration-response and QSP model fit; format: cell-based, human; conditions: Homo sapiens, 144 h
Outline: as §1

[3] = system: monocyte progenitors (monocyte prog); assay: MLTA, MonoP: concentration-response and QSP model fit; format: cell-based, human; conditions: Homo sapiens, Monocyte, 144 h
Outline: (§2)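 Freeze-thawed primary human bone marrow CD34+ cells were grown in SFEM II with a multi-lineage cytokine cocktail, drug added day 0, six days at 37°C. Lineage counts came from 17-parameter flow with TruCount beads, vehicle-normalized per donor, then fitted by an Emax-based QSP model.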

[4] = system: neutrophils (neutrophil-lin); assay: MLTA, Neut: concentration-response and QSP model fit; format: cell-based, human; conditions: Homo sapiens, Neutrophil, 144 h
Outline: as §1

[5] = system: early erythroid cells (Eryth I); assay: MLTA, ErythI: concentration-response and QSP model fit; format: cell-based, human; conditions: Homo sapiens, 144 h
Outline: as §2

[6] = system: granulocyte progenitor (Gran-lin prog); assay: MLTA, GranP: concentration-response and QSP model fit; format: cell-based, human; conditions: Homo sapiens, 144 h
Outline: as §2

[7] = QSP model fit of 6-day MLTA data

EC50 ([1]; QSP model fit of 6-day MLTA data, read-out: EC50ErythII): 45.1 nM
EC50 (MK cells (MK-lin); [7]): 486 nM
EC50 [4, 7]: 66.2 nM
EC50 ([5]; QSP model fit of 6-day MLTA data, read-out: EC50ErythI): 29.2 nM
SMILES: CCN1CCN(Cc2ccc(Nc3ncc(F)c(-c4cc(F)c5nc(C)n(C(C)C)c5c4)n3)nc2)CC1 [abemaciclib]
activity at 0.0002 µM ([1]; dose 0.2 nM, 6 days, normalized to vehicle control, read-out: ErythII normalized cell count): 96.2%
activity at 0.001 µM ([1]; dose 1 nM, 6 days, normalized to vehicle control, read-out: ErythII normalized cell count): 112%
activity at 0.005 µM ([1]; dose 5 nM, 6 days, normalized to vehicle control, read-out: ErythII normalized cell count): 106%
activity at 0.025 µM ([1]; dose 25 nM, 6 days, normalized to vehicle control, read-out: ErythII normalized cell count): 57.9%
activity at 0.1 µM ([1]; dose 100 nM, 6 days, normalized to vehicle control, read-out: ErythII normalized cell count): 20.4%
activity at 0.5 µM ([1]; dose 500 nM, 6 days, normalized to vehicle control, read-out: ErythII normalized cell count): 1.77%
activity at 2.5 µM ([1]; dose 2500 nM, 6 days, normalized to vehicle control, read-out: ErythII normalized cell count): 0.0231%
Emax ([1]; parameter from QSP model fitting, read-out: Emax_drug_ErythroidII): 3.33%
viability at 0.0002 µM ([2]; dose 0.2 nM): 99.1%
viability at 0.001 µM ([2]; dose 1 nM): 108%
viability at 0.005 µM ([2]; dose 5 nM): 96%
viability at 0.025 µM ([2]; dose 25 nM): 47.7%
viability at 0.1 µM ([2]; dose 100 nM): 17.4%
viability at 0.5 µM ([2]; dose 500 nM): 3.05%
viability at 2.5 µM ([2]; dose 2500 nM): 0.301%
activity at 0.0002 µM (MK cells (MK-lin); dose 0.2 nM, 6 days, normalized to vehicle control, read-out: MK normalized cell count): 108%
activity at 0.001 µM (MK cells (MK-lin); dose 1 nM, 6 days, normalized to vehicle control, read-out: MK normalized cell count): 99.5%
activity at 0.005 µM (MK cells (MK-lin); dose 5 nM, 6 days, normalized to vehicle control, read-out: MK normalized cell count): 101%
activity at 0.025 µM (MK cells (MK-lin); dose 25 nM, 6 days, normalized to vehicle control, read-out: MK normalized cell count): 84.2%
activity at 0.1 µM (MK cells (MK-lin); dose 100 nM, 6 days, normalized to vehicle control, read-out: MK normalized cell count): 44.1%
activity at 0.5 µM (MK cells (MK-lin); dose 500 nM, 6 days, normalized to vehicle control, read-out: MK normalized cell count): 8.35%
activity at 2.5 µM (MK cells (MK-lin); dose 2500 nM, 6 days, normalized to vehicle control, read-out: MK normalized cell count): 0.557%
Emax (MK cells (MK-lin); parameter from QSP model fitting, read-out: Emax_drug_MK): 6.8%
activity at 0.0002 µM ([3]; dose 0.2 nM, 6 days, normalized to vehicle control, read-out: MonoPs normalized cell count): 98.7%
activity at 0.001 µM ([3]; dose 1 nM, 6 days, normalized to vehicle control, read-out: MonoPs normalized cell count): 99.4%
activity at 0.005 µM ([3]; dose 5 nM, 6 days, normalized to vehicle control, read-out: MonoPs normalized cell count): 80.6%
activity at 0.025 µM ([3]; dose 25 nM, 6 days, normalized to vehicle control, read-out: MonoPs normalized cell count): 27.5%
activity at 0.1 µM ([3]; dose 100 nM, 6 days, normalized to vehicle control, read-out: MonoPs normalized cell count): 8.19%
activity at 0.5 µM ([3]; dose 500 nM, 6 days, normalized to vehicle control, read-out: MonoPs normalized cell count): 1.58%
activity at 2.5 µM ([3]; dose 2500 nM, 6 days, normalized to vehicle control, read-out: MonoPs normalized cell count): 0.0911%
Emax ([3]; parameter from QSP model fitting, read-out: Emax_drug_MonoP): 0.17%
activity at 0.0002 µM ([4]; dose 0.2 nM, 6 days, normalized to vehicle control, read-out: Neut normalized cell count): 99.5%
activity at 0.001 µM ([4]; dose 1 nM, 6 days, normalized to vehicle control, read-out: Neut normalized cell count): 100%
activity at 0.005 µM ([4]; dose 5 nM, 6 days, normalized to vehicle control, read-out: Neut normalized cell count): 86.7%
activity at 0.025 µM ([4]; dose 25 nM, 6 days, normalized to vehicle control, read-out: Neut normalized cell count): 30.8%
activity at 0.1 µM ([4]; dose 100 nM, 6 days, normalized to vehicle control, read-out: Neut normalized cell count): 4.02%
activity at 0.5 µM ([4]; dose 500 nM, 6 days, normalized to vehicle control, read-out: Neut normalized cell count): 0.252%
activity at 2.5 µM ([4]; dose 2500 nM, 6 days, normalized to vehicle control, read-out: Neut normalized cell count): 0.0296%
Emax ([4]; parameter from QSP model fitting, read-out: Emax_drug_Neut): 23.5%
activity at 0.0002 µM ([5]; dose 0.2 nM, 6 days, normalized to vehicle control, read-out: ErythI normalized cell count): 107%
activity at 0.001 µM ([5]; dose 1 nM, 6 days, normalized to vehicle control, read-out: ErythI normalized cell count): 116%
activity at 0.005 µM ([5]; dose 5 nM, 6 days, normalized to vehicle control, read-out: ErythI normalized cell count): 97.8%
activity at 0.025 µM ([5]; dose 25 nM, 6 days, normalized to vehicle control, read-out: ErythI normalized cell count): 47.1%
activity at 0.1 µM ([5]; dose 100 nM, 6 days, normalized to vehicle control, read-out: ErythI normalized cell count): 20.1%
activity at 0.5 µM ([5]; dose 500 nM, 6 days, normalized to vehicle control, read-out: ErythI normalized cell count): 4.76%
activity at 2.5 µM ([5]; dose 2500 nM, 6 days, normalized to vehicle control, read-out: ErythI normalized cell count): 0.613%
Emax ([5]; parameter from QSP model fitting, read-out: Emax_drug_ErythroidI): 102%
activity at 0.0002 µM ([6]; dose 0.2 nM, 6 days, normalized to vehicle control, read-out: GranPs normalized cell count): 95.1%
activity at 0.001 µM ([6]; dose 1 nM, 6 days, normalized to vehicle control, read-out: GranPs normalized cell count): 100%
activity at 0.005 µM ([6]; dose 5 nM, 6 days, normalized to vehicle control, read-out: GranPs normalized cell count): 86.6%
activity at 0.025 µM ([6]; dose 25 nM, 6 days, normalized to vehicle control, read-out: GranPs normalized cell count): 52%
activity at 0.1 µM ([6]; dose 100 nM, 6 days, normalized to vehicle control, read-out: GranPs normalized cell count): 24.8%
activity at 0.5 µM ([6]; dose 500 nM, 6 days, normalized to vehicle control, read-out: GranPs normalized cell count): 2.43%
activity at 2.5 µM ([6]; dose 2500 nM, 6 days, normalized to vehicle control, read-out: GranPs normalized cell count): 0.0287%
Emax ([6]; parameter from QSP model fitting, read-out: Emax_drug_GranP): 0.23%
